Experimental data: PubChem BioAssay (NCI)
“And” between values parts separate entries of the source, which are not always exact repeats. Equal values may be shown once.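 48-hour exposure; five concentrations; linearly interpolated endpoints. Abbreviation: GI50, concentration required for 50% inhibition of growth. At the TGI there is no net growth.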

Key:
Test in all cases: inhibition of tumour cell growth, NCI panel, 48 h
SK-MEL-28 melanoma = system: SK-MEL-28 melanoma
SF-295 CNS = system: SF-295 CNS
IGROV1 ovarian = system: IGROV1 ovarian
A498 renal = system: A498 renal
SR leukemia = system: SR leukemia
HCT-15 colon = system: HCT-15 colon
COLO 205 colon = system: COLO 205 colon
HT29 colon = system: HT29 colon
SN12C renal = system: SN12C renal
CCRF-CEM leukemia = system: CCRF-CEM leukemia

SMILES | GI50 (SK-MEL-28 melanoma) [µM] | TGI (SK-MEL-28 melanoma) [µM] | GI50 (SF-295 CNS) [µM] | TGI (SF-295 CNS) | GI50 (IGROV1 ovarian) [µM] | TGI (IGROV1 ovarian) [µM] | GI50 (A498 renal) [µM] | TGI (A498 renal) | GI50 (SR leukemia) [µM] | TGI (SR leukemia) [µM] | GI50 (HCT-15 colon) [µM] | TGI (HCT-15 colon) | GI50 (COLO 205 colon) [µM] | TGI (COLO 205 colon) [µM] | GI50 (HT29 colon) [µM] | TGI (HT29 colon) [µM] | GI50 (SN12C renal) [µM] | TGI (SN12C renal) [µM] | TGI (CCRF-CEM leukemia) [µM] | GI50 (CCRF-CEM leukemia) [µM]
Cc1cc(C2CCCCC2)n(O)c(=O)c1 | 4.07 | > 100 | 0.81 | 86.8 µM and > 100 µM | 0.989 | > 100 | 7 | > 100 µM and 46.7 µM | 0.66 | > 100 | 0.655 | > 100 µM and 38.1 µM | 4.46 | > 100 | 5.27 | > 100 | 1.45 | > 100 | 74.5 | 
CN(C)C(=S)SN(C)C(=O)Nc1ccccc1 |  | 53.6 |  | > 100 µM |  | > 100 |  | > 33.8 µM |  | 72.3 |  | > 85.3 µM |  | > 100 |  | 24.4 |  | 89.3 | > 91.1 | 
CCC(C)(O)c1cn(-c2cccc(S(=O)(=O)O)c2)nn1 (stereo not drawn) |  | > 100 |  | > 100 µM |  | > 100 |  | > 100 µM |  | > 100 |  | > 100 µM |  | > 100 |  | > 100 |  | > 100 | > 100 | 
C=C1C(=O)O[C@H]2[C@H]1CC/C(COC(=O)/C=C\C(=O)NCc1ccc(Cn3c(=O)sn(-c4ccc(C#N)cc4)c3=O)cc1)=C\CC[C@@]1(C)O[C@@H]21 | 0.857 | 1.61 | 3.54 | 9.7 µM | 0.592 | 1.3 | 0.769 | 1.55 µM | 0.292 | 50 | 0.505 | 1.95 µM | 0.541 | 1.41 | 0.474 | 1.9 | 0.671 | 1.57 | 17.9 | 0.2
COc1cc([C@@H]2c3cc4c(cc3C(O[C@@H]3O[C@@H]5CO[C@@H](c6cccs6)OC5[C@H](O)[C@H]3O)C3COC(=O)[C@@H]32)OCO4)cc(OC)c1O (stereo partly drawn) | 0.171 | 0.953 | 0.0224 | 0.712 µM | 0.228 | 5.13 | 0.0635 | 0.551 µM | < 0.005 | 0.0249 | 0.499 | 19.4 µM | 0.0984 | 0.809 | 0.123 | 1.1 | 0.0272 | 5.68 | 0.175 | 0.00941
NC(N)=NC(N)=Nc1cc2ccccc2c2ccccc12 | 13.2 | 26.2 | 13.3 | 28.4 µM | 4.04 | 19.1 | 1.39 | 10.1 µM | 2.68 | 9.34 | 14.9 | 30.5 µM | 1.84 | 4.49 | 7.83 | 23.6 | 5.3 | 19.9 | 30.5 | 8.61
Cc1[nH]c(N=Nc2ccccc2)nc1N=Nc1ccccc1 | 4.5 | > 41 | 1.93 | 11.6 µM | 1.6 | 5.15 | 5.1 | 25.6 µM | 0.418 |  | 1.4 | 22.1 µM | 2.96 | 13.1 | 4.57 | 20.8 | 3.51 | 22.4 | > 25.3 | 2.19
CC(C)CSc1nc(Nc2ccccc2)c(C#N)c(-c2ccc(F)cc2)n1 | 12.2 | 35.5 | 0.971 | 11.4 µM | 0.702 | 10 | 1.19 | 6.13 µM | 0.976 | 14 | 9.06 | > 100 µM | 1.86 | 20.1 | 14.5 | > 100 | 0.597 | 3.14 | > 100 | 5.53
COc1cc(Cn2c(-c3ccccc3)cc3c2-c2oncc2CC3)cc(OC)c1OC | 1.14 | 45.9 | 0.366 | 5.57 µM | 2.64 | > 100 | 0.271 | 2.06 µM | 0.42 | 43.2 | 0.64 | > 100 µM | 0.696 | 3.13 | 0.446 | 47.2 | 5.84 | > 100 | > 100 | 0.857
COc1ccc(C2CC(=O)c3c(OC)cc(OC)cc3O2)cc1 (stereo not drawn) | > 100 | > 100 | > 100 | > 100 µM | > 100 | > 100 | > 100 | > 100 µM | > 100 | > 100 | > 100 | > 100 µM | > 100 | > 100 | > 100 | > 100 | > 100 | > 100 | > 100 | 4.2
O=c1[nH]c(=O)n(C2CC(O)C(CS)O2)cc1F (stereo not drawn) |  | > 100 |  | > 100 µM |  | > 100 |  | > 86.2 µM |  | > 100 |  | > 100 µM |  | > 100 |  | > 100 |  | > 100 | > 100 | 
COC(=O)C(=O)C(C(=O)C(=O)Nc1ccc(C)cc1C)c1nc2ccccc2[nH]c1=O (stereo not drawn) |  | > 100 |  | > 100 µM |  | > 100 |  | 58.8 µM |  | > 100 |  | > 100 µM |  | > 100 |  | > 100 |  | > 100 | > 100 | 
COc1ccc(-c2cc3c(nn2)-c2ccccc2C3=O)cc1 | > 100 | > 100 | > 100 | > 100 µM | > 100 | > 100 | > 100 | > 100 µM | 14.7 | > 100 | > 100 | > 100 µM | > 100 | > 100 | > 100 | > 100 | > 100 | > 100 | > 100 | 9.52
Cn1cc(C2=C(c3cn(C)c4c(N)cccc34)C(=O)NC2=O)c2ccccc21 | 3.43 | > 20.6 | 0.898 | > 11.6 µM | 4.2 | > 19.6 | 0.895 | 4.29 µM | 0.407 | > 25 | 0.743 | > 25 µM | 1.99 | 9.96 | 1.25 | 12.8 | 2.12 | > 25 | > 25 | 0.797
